Reference: US20030187048A1, “Method for inhibiting skin lesion formation using histamine as the active ingredient” (priority 1991, published 2003)
Several values for one entry are separate records, joined by “and”; a condition that tells them apart may be missing. Identical values can stand only once. Like-named read-outs stand apart in the source and are kept apart here.

Experiments:
[1] = tested on: pressure sores (decubitus ulcers); conditions: for Percent Reduction in Area from original Size / Mean Percent Reduction/Week: per patient; for Mean Percent Reduction/Week: lesion area from original size
Description: Treatment included standardized decubitus ulcer care for all pressure sores as determined by the protocol for the study.
Prospective subjects were considered for the study if their pressure sores (decubitus ulcers) were free from infection and either a Stage I or a Stage II lesion.
Patients were randomly assigned to one of four active ingredient levels being evaluated. […] Assignment of subjects to the four gel concentrations was unknown to the investigator.
The topical application of all gel concentrations to their respective, randomly assigned patients occurred once daily following careful rinsing of the pressure sore with sterile normal saline. After application of the appropriate gel concentration, each pressure sore was covered with a bio-occlusive dressing to minimize wound contamination.
Clinical evaluation included weekly classification of the stage of the pressure sores, the size and depth of the sores, the color, signs of infection (if present), odor (if present), and patient cooperation with treatment.

[2] = tested on: cold sore (herpes labialis) lesions

NCCc1c[nH]cn1 [IEP, 1H-imidazole-4-ethanamine,phosphate]
Percent Reduction in Area from original Size ([1]; 0.0045% IEP gel, end of treatment week 1): 28.5% and 29.8%
Percent Reduction in Area from original Size ([1]; 0.0045% IEP gel, end of week 2): 33.6% and 66.6%
Percent Reduction in Area from original Size ([1]; 0.0045% IEP gel, end of week 3): 51.6% and 72.8%
Percent Reduction in Area from original Size ([1]; 0.0045% IEP gel, end of week 4): 71.7% and 84.9%
Percent Reduction in Area from original Size ([1]; 0.0045% IEP gel, end of week 5): 78.8% and 90.1%
Percent Reduction in Area from original Size ([1]; 0.0045% IEP gel, end of week 6): 87.0% and 95.6%
Percent Reduction in Area from original Size ([1]; 0.0045% IEP gel, end of week 7): 91.4% and 97.5%
Percent Reduction in Area from original Size ([1]; 0.0045% IEP gel, end of week 8): 92.3% and 99.4%
Percent Reduction in Area from original Size ([1]; 0.0045% IEP gel, end of week 9): 92.3% and 99.4%
Percent Reduction in Area from original Size ([1]; 0.0045% IEP gel, end of week 10): 99.4%
Mean Percent Reduction/Week ([1]; 0.0045% gel): 10.3% and 12.1%
Percent Reduction in Area from original Size ([1]; 0.0069% IEP gel, end of week 1): 48.6% and 55.6%
Percent Reduction in Area from original Size ([1]; 0.0069% IEP gel, end of week 2): 77.1% and 60.0%
Percent Reduction in Area from original Size ([1]; 0.0069% IEP gel, end of week 3): 77.1% and 78.2%
Percent Reduction in Area from original Size ([1]; 0.0069% IEP gel, end of week 4): 100% and 81.3%
Percent Reduction in Area from original Size ([1]; 0.0069% IEP gel, end of week 5): 84.4%
Percent Reduction in Area from original Size ([1]; 0.0069% IEP gel, end of week 6): 88.9%
Percent Reduction in Area from original Size ([1]; 0.0069% IEP gel, end of week 7): 100%
Mean Percent Reduction/Week ([1]; 0.0069% gel): 14.3% and 25.0%
Percent Reduction in Area from original Size ([1]; 0.009% IEP gel, end of week 1): 66.7% and 56.5%
Percent Reduction in Area from original Size ([1]; 0.009% IEP gel, end of week 2): 100.0% and 56.5%
Percent Reduction in Area from original Size ([1]; 0.009% IEP gel, end of week 3): 100.0%
Mean Percent Reduction/Week ([1]; 0.009% gel): 50.0% and 40.0%
Reducing the size of pressure sores vs placebo gel ([1]; 0.009% vs 0%, mean percent reduction in area per week, p<0.05): statistically significantly more effective
Untoward effects ([1]; in vivo): no untoward effects
Mean percentage decay rate of lesions, Conc. Mean ([2]; 0.00083% gel, 4 patients): 23.1%
Average % reduction in lesions from original size ([2]; 0.00083% gel, 48 Hours): 14.0%
Average % reduction in lesions from original size ([2]; 0.00083% gel, 72 Hours): 27.6%
Average % reduction in lesions from original size ([2]; 0.00083% gel, 96 Hours): 44.3%
Burning, average percent reduction of original symptom ([2]; 0.00083% gel, Day 1): 20.9%
Itching, average percent reduction of original symptom ([2]; 0.00083% gel, Day 1): 41.7%
Pain, average percent reduction of original symptom ([2]; 0.00083% gel, Day 1): 34.2%
Spreading, average percent reduction of original symptom ([2]; 0.00083% gel, Day 1): 0%
Swelling, average percent reduction of original symptom ([2]; 0.00083% gel, Day 1): 10.4%
Burning, average percent reduction of original symptom ([2]; 0.00083% gel, Day 2): 66.7%
Itching, average percent reduction of original symptom ([2]; 0.00083% gel, Day 2): 47.8%
Pain, average percent reduction of original symptom ([2]; 0.00083% gel, Day 2): 51.7%
Spreading, average percent reduction of original symptom ([2]; 0.00083% gel, Day 2): 0%
Swelling, average percent reduction of original symptom ([2]; 0.00083% gel, Day 2): 37.5%
Burning, average percent reduction of original symptom ([2]; 0.00083% gel, Day 3): 58.3%
Itching, average percent reduction of original symptom ([2]; 0.00083% gel, Day 3): 16.7%
Pain, average percent reduction of original symptom ([2]; 0.00083% gel, Day 3): 51.7%
Spreading, average percent reduction of original symptom ([2]; 0.00083% gel, Day 3): 11.1%
Burning, average percent reduction of original symptom ([2]; 0.00083% gel, Day 4): 75.0%
Itching, average percent reduction of original symptom ([2]; 0.00083% gel, Day 4): 11.1%
Pain, average percent reduction of original symptom ([2]; 0.00083% gel, Day 4): 65.0%
Spreading, average percent reduction of original symptom ([2]; 0.00083% gel, Day 4): 22.2%
Swelling, average percent reduction of original symptom ([2]; 0.00083% gel, Day 4): 75.0%
Burning, average percent reduction of original symptom ([2]; 0.00083% gel, Day 5): 77.8%
Itching, average percent reduction of original symptom ([2]; 0.00083% gel, Day 5): 41.7%
Pain, average percent reduction of original symptom ([2]; 0.00083% gel, Day 5): 64.4%
Spreading, average percent reduction of original symptom ([2]; 0.00083% gel, Day 5): 50.0%
Swelling, average percent reduction of original symptom ([2]; 0.00083% gel, Day 5): 55.6%
Burning, average percent reduction of original symptom ([2]; 0.00083% gel, Day 6): 66.7%
Itching, average percent reduction of original symptom ([2]; 0.00083% gel, Day 6): 75.0%
Pain, average percent reduction of original symptom ([2]; 0.00083% gel, Day 6): 66.7%
Spreading, average percent reduction of original symptom ([2]; 0.00083% gel, Day 6): 66.7%
Swelling, average percent reduction of original symptom ([2]; 0.00083% gel, Day 6): 0%
Mean percentage decay rate of lesions, Conc. Mean ([2]; 0.0033% gel, 5 patients): 24.1%
Average % reduction in lesions from original size ([2]; 0.0033% gel, 24 Hours): 11.8%
Average % reduction in lesions from original size ([2]; 0.0033% gel, 48 Hours): 44.6%
Average % reduction in lesions from original size ([2]; 0.0033% gel, 72 Hours): 57.8%
Average % reduction in lesions from original size ([2]; 0.0033% gel, 96 Hours): 61.6%
Burning, average percent reduction of original symptom ([2]; 0.0033% gel, Day 1): 21.7%
Itching, average percent reduction of original symptom ([2]; 0.0033% gel, Day 1): 23.4%
Spreading, average percent reduction of original symptom ([2]; 0.0033% gel, Day 1): 50.0%
Burning, average percent reduction of original symptom ([2]; 0.0033% gel, Day 2): 37.5%
Itching, average percent reduction of original symptom ([2]; 0.0033% gel, Day 2): 55.0%
Spreading, average percent reduction of original symptom ([2]; 0.0033% gel, Day 2): 50.0%
Swelling, average percent reduction of original symptom ([2]; 0.0033% gel, Day 2): 45.4%
Burning, average percent reduction of original symptom ([2]; 0.0033% gel, Day 3): 62.5%
Itching, average percent reduction of original symptom ([2]; 0.0033% gel, Day 3): 58.5%
Pain, average percent reduction of original symptom ([2]; 0.0033% gel, Day 3): 33.3%
Spreading, average percent reduction of original symptom ([2]; 0.0033% gel, Day 3): 16.7%
Swelling, average percent reduction of original symptom ([2]; 0.0033% gel, Day 3): 55.8%
Burning, average percent reduction of original symptom ([2]; 0.0033% gel, Day 4): 68.8%
Itching, average percent reduction of original symptom ([2]; 0.0033% gel, Day 4): 75.0%
Pain, average percent reduction of original symptom ([2]; 0.0033% gel, Day 4): 66.8%
Spreading, average percent reduction of original symptom ([2]; 0.0033% gel, Day 4): 100%
Swelling, average percent reduction of original symptom ([2]; 0.0033% gel, Day 4): 55.9%
Burning, average percent reduction of original symptom ([2]; 0.0033% gel, Day 5): 100%
Itching, average percent reduction of original symptom ([2]; 0.0033% gel, Day 5): 82.5%
Pain, average percent reduction of original symptom ([2]; 0.0033% gel, Day 5): 66.7%
Spreading, average percent reduction of original symptom ([2]; 0.0033% gel, Day 5): 100%
Swelling, average percent reduction of original symptom ([2]; 0.0033% gel, Day 5): 65.0%
Burning, average percent reduction of original symptom ([2]; 0.0033% gel, Day 6): 87.5%
Itching, average percent reduction of original symptom ([2]; 0.0033% gel, Day 6): 100%
Pain, average percent reduction of original symptom ([2]; 0.0033% gel, Day 6): 83.4%
Swelling, average percent reduction of original symptom ([2]; 0.0033% gel, Day 6): 66.7%
Mean percentage decay rate of lesions, Conc. Mean ([2]; 0.0067% gel, 4 patients): 54.4%
Average % reduction in lesions from original size ([2]; 0.0067% gel, 24 Hours): 37.5%
Average % reduction in lesions from original size ([2]; 0.0067% gel, 48 Hours): 67.0%
Average % reduction in lesions from original size ([2]; 0.0067% gel, 72 Hours): 86.2%
Average % reduction in lesions from original size ([2]; 0.0067% gel, 96 Hours): 98.9%
Burning, average percent reduction of original symptom ([2]; 0.0067% gel, Day 1): 50.0%
Itching, average percent reduction of original symptom ([2]; 0.0067% gel, Day 1): 50.0%
Pain, average percent reduction of original symptom ([2]; 0.0067% gel, Day 1): 66.7%
Spreading, average percent reduction of original symptom ([2]; 0.0067% gel, Day 1): 66.7%
Swelling, average percent reduction of original symptom ([2]; 0.0067% gel, Day 1): 50.0%
Burning, average percent reduction of original symptom ([2]; 0.0067% gel, Day 2): 100%
Itching, average percent reduction of original symptom ([2]; 0.0067% gel, Day 2): 100%
Pain, average percent reduction of original symptom ([2]; 0.0067% gel, Day 2): 83.4%
Spreading, average percent reduction of original symptom ([2]; 0.0067% gel, Day 2): 100%
Swelling, average percent reduction of original symptom ([2]; 0.0067% gel, Day 2): 83.3%
Burning, average percent reduction of original symptom ([2]; 0.0067% gel, Day 3): 100%
Itching, average percent reduction of original symptom ([2]; 0.0067% gel, Day 3): 100%
Pain, average percent reduction of original symptom ([2]; 0.0067% gel, Day 3): 55.6%
Spreading, average percent reduction of original symptom ([2]; 0.0067% gel, Day 3): 100%
Swelling, average percent reduction of original symptom ([2]; 0.0067% gel, Day 3): 54.2%
Burning, average percent reduction of original symptom ([2]; 0.0067% gel, Day 4): 100%
Itching, average percent reduction of original symptom ([2]; 0.0067% gel, Day 4): 75.0%
Pain, average percent reduction of original symptom ([2]; 0.0067% gel, Day 4): 55.6%
Spreading, average percent reduction of original symptom ([2]; 0.0067% gel, Day 4): 100%
Swelling, average percent reduction of original symptom ([2]; 0.0067% gel, Day 4): 61.7%
Burning, average percent reduction of original symptom ([2]; 0.0067% gel, Day 5): 100%
Itching, average percent reduction of original symptom ([2]; 0.0067% gel, Day 5): 100%
Pain, average percent reduction of original symptom ([2]; 0.0067% gel, Day 5): 100%
Spreading, average percent reduction of original symptom ([2]; 0.0067% gel, Day 5): 100%
Swelling, average percent reduction of original symptom ([2]; 0.0067% gel, Day 5): 66.7%
Spreading, average percent reduction of original symptom ([2]; 0.0067% gel, Day 6): 100%
Swelling, average percent reduction of original symptom ([2]; 0.0067% gel, Day 6): 100%
Reducing lesion size over time vs placebo (analysis of variance) ([2]; 0.0067% treatment vs placebo, p<0.05): significantly more effective
Untoward reactions ([2]; in vivo): no untoward reactions
